From patent US9670363B2, “Substituted anthraquinone dyes for cellular stains and enzyme detection” (Biotium, Inc., priority 2011, dated 2017)
“Also recorded” adds a separate entry of the source.

Columns and labels:
Format in all cases: cell-based
[1] = test system: HeLa cells; test: Staining live cells with Dye No. 1 (fluorescence microscopy); conditions: live adherent HeLa cells; 5 μM DRAQ5 or 10 μM Dye No. 1 in 1× PBS, 37° C., 5 minutes; CY5 filter
Experimental: Live, adherent HeLa cells grown in 12-well plates were treated with either 5 μM DRAQ5 or 10 μM of Dye No. 1 in 1× phosphate buffered saline (PBS). Cells were incubated at 37° C. for 5 minutes. Fluorescence was observed using an epifluorescence microscope with the CY5 filter.

[2] = test system: HeLa cells; test: Toxicity approximately 18 hours after staining (bright-field microscopy); conditions: live HeLa cells, 5 μM DRAQ5 or 20 μM Dye No. 1, 5 minutes at 37° C., then approximately 18 hours in fresh medium
Experimental: Dark spots are indicative of dead cells.
Live HeLa cells were treated with either 5 μM DRAQ5 or 20 μM Dye No. 1 in 1×PBS for 5 minutes at 37° C. The dye/PBS solution was removed and replaced with fresh Dulbecco/Vogt modified Eagle's minimal essential medium (DMEM) supplemented with bovine growth serum (BGS). The cells were incubated at 37° C. for approximately 18 hours, and observed under bright-field at 10× magnification (FIG. 2).

[3] = test system: HeLa cells; test: Staining of live (unfixed) HeLa cultures; selective staining of dead cells; conditions: 1 uL of 500 uM dye stock in 100 uL medium, five minutes, room temperature
Experimental: HeLa cells were seeded at a density of 2×10^4 cells in 100 uL culture medium per well in tissue culture treated, optical bottom, black 96-well plates. One day after seeding, 1 uL of 500 uM dye stock in DMSO was added directly to the culture medium (100 uL) and mixed by trituration. The cells were incubated at room temperature for five minutes. The culture medium containing dye was removed and replaced by 100 uL phosphate buffered saline. Cellular fluorescence was imaged using an the Cy5 filter set of an Olympus IX71 epifluorescence microscope and a Q-Imaging Retiga 2000R Fast 1394 mono camera (FIG. 5). […] Probes that can selectively detect dead cells are useful in cell viability assays, which are widely practiced in drug screening.

[4] = test system: HeLa cells; test: Normalizing or counting cell number; conditions: HeLa cells seeded at several densities, fixed, permeabilized, stained one hour at room temperature; LI-COR Odyssey
Experimental: HeLa cells were counted/normalized using Dye No. 1. HeLa cells were seeded in 96-well—lates at several densities per well (as indicated on the x-axis of FIG. 7). After 24 hours, cells were fixed, permeabilized, and stained with the indicated dyes for one hour at room temperature according to the protocol provided by the supplier of the DRAQ5/Sapphire700 system. Fluorescence was quantitated using a LI-COR Odyssey system. HeLa cells seeded at 25,000 cells were confluent at the time of the assay.

[5] = test system: HeLa cells; test: Staining of fixed and permeabilized cells; conditions: HeLa fixed with 4% paraformaldehyde, 0.5% Triton X-100; 3 μM DRAQ7 or 10 μM dye, 5 minutes, room temperature
Experimental: Adherent HeLa cells in 12-well plates were fixed with 4% paraformaldehyde for 15 minutes at room temperature. Cells were then permeabilized with 0.5% Triton X-100 for 10 minutes at room temperature. Three micromolar (3 μM, the manufacturer's recommended concentration) DRAQ7 or 10 μM Dye No. 7, 13, or 15 were added to the fixed and permeabilized cells in 1×PBS and incubated for 5 minutes at room temperature. The dye/PBS solution was removed and replaced with fresh 1×PBS. Fluorescence was observed using an epifluorescence microscope with the CY5 filter (FIG. 3).

[6] = test system: rat skeletal muscle; test: Staining of tissue sections with Dye No. 7; conditions: acetone-fixed frozen sections of rat skeletal muscle; 10 uM, five minutes, room temperature
Experimental: Acetone-fixed frozen sections of rat skeletal muscle were purchased from Biochain Institute Inc. (Hayward, Calif.). Sections were rinsed in phosphate buffered saline and stained with 10 uM Dye No. 7 and 5 units/mL CF488A-phalloidin (Biotium Inc, Hayward, Calif.) for five minutes at room temperature. Sections were rinsed twice in phosphate buffered saline and mounted with EverBrite mounting medium (Biotium, Inc, Hayward, Calif.). Tissue fluorescence was imaged using the FITC and Cy5 filter sets of an Olympus IX71 epifluorescence microscope and a Q-Imaging Retiga 2000R Fast 1394 mono camera (FIG. 4).

Row | SMILES | nuclear staining of live cells [1] | toxicity (cell death) after staining [2] | staining of live versus dead cells in live (unfixed) culture [3] | fluorescence versus number of cells stained [4] | nuclear staining specificity in fixed and permeabilized cells [5] | nuclear staining specificity in tissue [6]
1 | CN(C)CCNc1ccc(O)c2c1C(=O)c1c(O)ccc(NCCNC(=O)C3CCCN3)c1C2=O (centres unmarked) [Dye No. 1] | stained the nuclei of live cells with high specificity; also recorded: stained the nuclei of live cells specifically | caused fewer cell deaths than Draq5 even at a much higher concentration; also recorded: much less toxic than Draq5 | stained the nuclei of all cells | linear with the number of cells stained |  | 
2 | CN(C)CCNc1ccc(O)c2c1C(=O)c1c(O)ccc(NCCN(C)C)c1C2=O [Draq5, reference compound] | stained the nuclei of live cells with high specificity; also recorded: stained the nuclei of live cells specifically | more cell death than that with Dye No. 1 |  |  |  | 
3 | CC(=N)NCCNc1ccc(O)c2c1C(=O)c1c(O)ccc(NCCNC(C)=N)c1C2=O [Dye No. 15] |  |  |  |  | much more specific in nuclear staining than Draq7; also recorded: stained cell nuclei specifically | 
4 | CN(C)CCNc1ccc(O)c2c1C(=O)c1c(O)ccc(NCCNC(=N)CCCCC(=N)NCCNc3ccc(O)c4c3C(=O)c3c(O)ccc(NCCN(C)C)c3C4=O)c1C2=O [Dye No. 7] |  |  | selectively stained the nuclei of dead cells only |  | much more specific in nuclear staining than Draq7; also recorded: stained cell nuclei specifically | excellent nuclear specificity
5 | O=C1c2c(O)ccc(NCCNC3=NCCN3)c2C(=O)c2c(O)ccc(NCCNC3=NCCN3)c21 [Dye No. 13] |  |  |  |  | much more specific in nuclear staining than Draq7 | 
